Legend:
Type in all cases: in vivo
[1] = system: Kochia (Kochia scoparia); experiment: Test A preemergence; settings: Bassia scoparia, pre-emergence, 240 h; for pest or weed control at 125 g/ha: 125 g ai/ha, Preemergence, visual injury rating after approximately 10 d, read-out: Kochia plant response rating (0 to 100 scale, 0 is no effect, 100 is complete control); for pest or weed control at 500 g/ha: 500 g ai/ha, preemergence, visual injury rating about 10 d after treatment, 0 to 100 scale (0 no effect, 100 complete control), read-out: Kochia plant response rating
Procedure, shortened: (§1)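 Greenhouse, ~10 d after spray; visual injury vs untreated controls, 0 = no effect, 100 = complete control. Preemergence: directed soil spray over planted seeds. Postemergence: plants 2–10 cm, 1–2 leaf stage. Loam/sand blend. Compound in non-phytotoxic solvent with surfactant.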

[2] = system: barnyardgrass (Echinochloa crus-galli); experiment: Test A preemergence; settings: Echinochloa crus-galli, pre-emergence, 240 h; for pest or weed control at 125 g/ha: 125 g ai/ha, Preemergence, visual injury rating after approximately 10 d, read-out: Barnyardgrass plant response rating (0 to 100 scale, 0 is no effect, 100 is complete control); for pest or weed control at 500 g/ha: 500 g ai/ha, preemergence, visual injury rating about 10 d after treatment, 0 to 100 scale (0 no effect, 100 complete control), read-out: Barnyardgrass plant response rating
Procedure, shortened: as §1

[3] = system: giant foxtail (Setaria faberii); experiment: Test A preemergence; settings: Setaria faberi, pre-emergence, 240 h; for pest or weed control at 125 g/ha: 125 g ai/ha, Preemergence, visual injury rating after approximately 10 d, read-out: Foxtail, Giant plant response rating (0 to 100 scale, 0 is no effect, 100 is complete control); for pest or weed control at 500 g/ha: 500 g ai/ha, preemergence, visual injury rating about 10 d after treatment, 0 to 100 scale (0 no effect, 100 complete control), read-out: Foxtail, Giant plant response rating
Procedure, shortened: as §1

[4] = system: pigweed (Amaranthus retroflexus); experiment: Test A preemergence; settings: Amaranthus retroflexus, pre-emergence, 240 h; for pest or weed control at 125 g/ha: 125 g ai/ha, Preemergence, visual injury rating after approximately 10 d, read-out: Pigweed plant response rating (0 to 100 scale, 0 is no effect, 100 is complete control); for pest or weed control at 500 g/ha: 500 g ai/ha, preemergence, visual injury rating about 10 d after treatment, 0 to 100 scale (0 no effect, 100 complete control), read-out: Pigweed plant response rating
[5] = system: ragweed (common ragweed, Ambrosia elatior); experiment: Test A preemergence; settings: Ambrosia artemisiifolia, pre-emergence, 240 h; for pest or weed control at 125 g/ha: 125 g ai/ha, Preemergence, visual injury rating after approximately 10 d, read-out: Ragweed plant response rating (0 to 100 scale, 0 is no effect, 100 is complete control); for pest or weed control at 500 g/ha: 500 g ai/ha, preemergence, visual injury rating about 10 d after treatment, 0 to 100 scale (0 no effect, 100 complete control), read-out: Ragweed plant response rating
Procedure, shortened: as §1

[6] = system: ryegrass, Italian (Italian ryegrass, Lolium multiflorum); experiment: Test A preemergence; settings: Lolium multiflorum, pre-emergence, 240 h; for pest or weed control at 125 g/ha: 125 g ai/ha, Preemergence, visual injury rating after approximately 10 d, read-out: Ryegrass, Italian plant response rating (0 to 100 scale, 0 is no effect, 100 is complete control); for pest or weed control at 500 g/ha: 500 g ai/ha, preemergence, visual injury rating about 10 d after treatment, 0 to 100 scale (0 no effect, 100 complete control), read-out: Ryegrass, Italian plant response rating
Procedure, shortened: as §1

[7] = system: Galium (catchweed bedstraw, Galium aparine); experiment: Test A postemergence; settings: Galium, post-emergence, 240 h, 125 g ai/ha, Postemergence; visual injury after approximately 10 d; 0 to 100 scale where 0 is no effect and 100 is complete control; read-out: Plant response rating, Galium
Procedure, shortened: as §1

[8] = system: Kochia (Kochia scoparia); experiment: Test A postemergence; settings: Bassia scoparia, post-emergence, 240 h, 125 g ai/ha, Postemergence; visual injury after approximately 10 d; 0 to 100 scale where 0 is no effect and 100 is complete control; read-out: Plant response rating, Kochia
Procedure, shortened: as §1

[9] = system: barnyardgrass (Echinochloa crus-galli); experiment: Test A postemergence; settings: Echinochloa crus-galli, post-emergence, 240 h, 125 g ai/ha, Postemergence; visual injury after approximately 10 d; 0 to 100 scale where 0 is no effect and 100 is complete control; read-out: Plant response rating, Barnyardgrass
Procedure, shortened: as §1

[10] = system: blackgrass (Alopecurus myosuroides); experiment: Test A postemergence; settings: Alopecurus myosuroides, post-emergence, 240 h, 125 g ai/ha, Postemergence; visual injury after approximately 10 d; 0 to 100 scale where 0 is no effect and 100 is complete control; read-out: Plant response rating, Blackgrass
Procedure, shortened: as §1

[11] = system: corn (Zea mays); experiment: Test A postemergence; settings: Zea mays, post-emergence, 240 h, 125 g ai/ha, Postemergence; visual injury after approximately 10 d; 0 to 100 scale where 0 is no effect and 100 is complete control
Procedure, shortened: as §1

[12] = system: giant foxtail (Setaria faberii); experiment: Test A postemergence; settings: Setaria faberi, post-emergence, 240 h, 125 g ai/ha, Postemergence; visual injury after approximately 10 d; 0 to 100 scale where 0 is no effect and 100 is complete control; read-out: Plant response rating, Foxtail, Giant
Procedure, shortened: as §1

[13] = system: pigweed (Amaranthus retroflexus); experiment: Test A postemergence; settings: Amaranthus retroflexus, post-emergence, 240 h, 125 g ai/ha, Postemergence; visual injury after approximately 10 d; 0 to 100 scale where 0 is no effect and 100 is complete control; read-out: Plant response rating, Pigweed
Procedure, shortened: as §1

[14] = system: ragweed (common ragweed, Ambrosia elatior); experiment: Test A postemergence; settings: Ambrosia artemisiifolia, post-emergence, 240 h, 125 g ai/ha, Postemergence; visual injury after approximately 10 d; 0 to 100 scale where 0 is no effect and 100 is complete control; read-out: Plant response rating, Ragweed
Procedure, shortened: as §1

[15] = system: ryegrass, Italian (Italian ryegrass, Lolium multiflorum); experiment: Test A postemergence; settings: Lolium multiflorum, post-emergence, 240 h, 125 g ai/ha, Postemergence; visual injury after approximately 10 d; 0 to 100 scale where 0 is no effect and 100 is complete control; read-out: Plant response rating, Ryegrass, Italian
Procedure, shortened: as §1

[16] = system: wheat (Triticum aestivum); experiment: Test A postemergence; settings: Triticum aestivum, post-emergence, 240 h, 125 g ai/ha, Postemergence; visual injury after approximately 10 d; 0 to 100 scale where 0 is no effect and 100 is complete control; read-out: Plant response rating, Wheat
Procedure, shortened: as §1

[17] = system: barnyardgrass (Echinochloa crus-galli); experiment: Test B flooded paddy test; settings: Echinochloa crus-galli, Flood, 250 g ai/ha; scale of 0 to 100 where 0 is no effect and 100 is complete control; read-out: Barnyardgrass plant response rating
Procedure, shortened: (§2)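 Greenhouse paddy pots with 2-leaf stage plants received compound by direct addition to floodwater 3 cm deep, kept at that level. Scored visually at 13–15 d versus controls (0 no effect; 100 complete control).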

[18] = system: ducksalad (Heteranthera limosa); experiment: Test B flooded paddy test; settings: Heteranthera limosa, Flood, 250 g ai/ha; scale of 0 to 100 where 0 is no effect and 100 is complete control; read-out: Ducksalad plant response rating
Procedure, shortened: as §2

[19] = system: rice (Oryra sativa); experiment: Test B flooded paddy test; settings: Oryza sativa, Flood, 250 g ai/ha; scale of 0 to 100 where 0 is no effect and 100 is complete control; read-out: Rice plant response rating
Procedure, shortened: as §2

[20] = system: sedge, umbrella (small-flower umbrella sedge, Cyperus difformis); experiment: Test B flooded paddy test; settings: Cyperus difformis, 250 g ai/ha, Flood; 0 to 100 scale where 0 is no effect and 100 is complete control; read-out: Sedge, Umbrella plant response rating
Procedure, shortened: as §2

| Compound | pest or weed control at 125 g/ha [1] [%] | pest or weed control at 500 g/ha [1] [%] | pest or weed control at 125 g/ha [2] [%] | pest or weed control at 500 g/ha [2] [%] | pest or weed control at 125 g/ha [3] [%] | pest or weed control at 500 g/ha [3] [%] | pest or weed control at 125 g/ha [4] [%] | pest or weed control at 500 g/ha [4] [%] | pest or weed control at 125 g/ha [5] [%] | pest or weed control at 500 g/ha [5] [%] | pest or weed control at 125 g/ha [6] [%] | pest or weed control at 500 g/ha [6] [%] | pest or weed control at 125 g/ha [7] [%] | pest or weed control at 125 g/ha [8] [%] | pest or weed control at 125 g/ha [9] [%] | pest or weed control at 125 g/ha [10] [%] | Corn plant response rating (crop injury, 0 = no effect, 100 = complete kill) at 125 g/ha [11] [%] | pest or weed control at 125 g/ha [12] [%] | pest or weed control at 125 g/ha [13] [%] | pest or weed control at 125 g/ha [14] [%] | also measured |
| --- | --- | --- | --- | --- | --- | --- | --- | --- | --- | --- | --- | --- | --- | --- | --- | --- | --- | --- | --- | --- | --- |
| CN1C[C@H](c2cc(F)cc(F)c2)[C@@H](C(=O)Nc2ccc(O)cc2F)C1=O [Compound 985] | 0 | 0 | 0 | 0 | 0 | 0 | 0 | 0 | 0 | 0 | 0 | 0 | 0 | 0 | 0 | 0 | 0 | 0 | 0 | 0 | pest or weed control at 125 g/ha [15]: 0%; plant injury at 125 g/ha [16]: 0%; pest or weed control at 250 g/ha [17]: 0%; pest or weed control at 250 g/ha [18]: 40%; pest or weed control at 250 g/ha [19]: 0%; pest or weed control at 250 g/ha [20]: 0% |
| COc1ccc([C@H]2CN(C)C(=O)[C@@H]2C(=O)Nc2cccc(F)c2F)cc1C(F)(F)F [Compound 986] | 30 | 70 | 90 | 90 | 100 | 100 | 60 | 70 | 50 | 70 | 60 | 80 | 30 | 30 | 80 | 40 | 80 | 90 | 0 | 0 | pest or weed control at 125 g/ha [15]: 30%; plant injury at 125 g/ha [16]: 20%; pest or weed control at 250 g/ha [17]: 55%; pest or weed control at 250 g/ha [18]: 75%; pest or weed control at 250 g/ha [19]: 20%; pest or weed control at 250 g/ha [20]: 0% |
| CSc1ccccc1NC(=O)[C@H]1C(=O)N(C)C[C@@H]1c1ccc(F)c(Br)c1 [Compound 990] | 70 | 90 | 100 | 100 | 100 | 100 | 40 | 80 | 50 | 80 | 0 | 60 | 60 | 40 | 90 | 0 | 40 | 80 | 30 | 0 | pest or weed control at 125 g/ha [15]: 20%; plant injury at 125 g/ha [16]: 0%; pest or weed control at 250 g/ha [17]: 50%; pest or weed control at 250 g/ha [18]: 100%; pest or weed control at 250 g/ha [19]: 55%; pest or weed control at 250 g/ha [20]: 0% |
